According to publication PMC8834685 (International Journal of Molecular Sciences, 2022):

T1: DmUCP4A (Drosophila melanogaster, UniProt Q9VX14)
T1 construct: gene Ucp4A
T1 sequence (Q9VX14 1-340): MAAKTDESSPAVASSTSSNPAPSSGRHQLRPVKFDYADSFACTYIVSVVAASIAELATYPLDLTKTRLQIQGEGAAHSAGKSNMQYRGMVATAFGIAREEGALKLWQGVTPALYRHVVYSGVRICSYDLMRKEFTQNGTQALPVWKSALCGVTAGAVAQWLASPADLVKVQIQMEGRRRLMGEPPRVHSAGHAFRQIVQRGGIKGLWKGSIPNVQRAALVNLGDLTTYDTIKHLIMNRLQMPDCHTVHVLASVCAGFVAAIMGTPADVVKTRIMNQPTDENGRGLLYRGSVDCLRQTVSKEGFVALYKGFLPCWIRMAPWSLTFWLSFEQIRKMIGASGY

B1: DmUCP4A (Drosophila melanogaster) (protein)
chain: T1 sequence (Q9VX14 1-340)

Molecular target: T1, DmUCP4A
Experiment: inhibition of […]aspartate/aspartate exchange in proteoliposomes
Assay type: biochemical
Settings: 0.3 mM external [14C]aspartate, 10 mM internal aspartate, pH 6.5, 25 °C, 1 min

| Molecule | % inhibition at 10 mM |
| --- | --- |
| O=C(O)CCC(=O)C(=O)O [2-oxoglutarate] | to a much lower extent by oxalate, maleate, 2-oxoglutarate, and cysteine sulfinate |
| c1ccc(-c2ccnc3c2ccc2c(-c4ccccc4)ccnc23)cc1 [bathophenanthroline] | The activity of DmUCP4A was strongly inhibited by BAT, PLP, and tannic acid |
| CCCCC(C(=O)O)C(=O)O [butylmalonate] | butylmalonate, and phenylsuccinate |
| N[C@@H](CS(=O)O)C(=O)O [cysteine sulfinate] | to a much lower extent by oxalate, maleate, 2-oxoglutarate, and cysteine sulfinate |
| O=C(O)/C=C\C(=O)O [maleate] | to a much lower extent by oxalate, maleate, 2-oxoglutarate, and cysteine sulfinate |
| O=C(O)CC(C(=O)O)c1ccccc1 (stereo not drawn) [phenylsuccinate] | butylmalonate, and phenylsuccinate |
| Cc1ncc(COP(=O)(O)O)c(C=O)c1O [pyridoxal-5′-phosphate] | The activity of DmUCP4A was strongly inhibited by BAT, PLP, and tannic acid |

Same assay, conditions: 0.3 mM external [14C]aspartate, 10 mM internal aspartate, pH 6.5, 25 °C, 1 min; added externally with labelled aspartate as potential competitor

| Molecule | % inhibition at 10 mM |
| --- | --- |
| O=C(O)C(=O)O [oxalate] | to a much lower extent by oxalate, maleate, 2-oxoglutarate, and cysteine sulfinate |

Substrate: N[C@@H](CC(=O)O)C(=O)O
Experiment: purified protein
Settings: aspartate/aspartate exchange, 10 mM internal aspartate, pH 6.5, 25 °C, labelled compound

| Molecule | Km [µM] |
| --- | --- |
| B1 | 229.2 ± 12.64 |
